Results as given in PubChem BioAssay AID1259407 (Chemical Carcinogenesis Research Information System (CCRIS), 2018).
Active and inactive are the calls of the source. How the calls were made is not given here.

Tested on: CCRIS mutagenicity, Ames/micronucleus/aberration tests
Experiment: CCRIS mutagenicity studies
Settings: Test System: AMES SALMONELLA TYPHIMURIUM
[1] = Strain/Indicator: TA98, Metabolic Activation: NONE, Method: PREINCUBATION
[2] = Strain/Indicator: TA100, Metabolic Activation: NONE, Method: PREINCUBATION
[3] = Strain/Indicator: TA98, Metabolic Activation: NONE, Method: STANDARD PLATE
[4] = Strain/Indicator: TA98, Metabolic Activation: RAT, LIVER, S-9, AROCLOR 1254, Method: STANDARD PLATE
[5] = Strain/Indicator: TA100, Metabolic Activation: NONE, Method: STANDARD PLATE
[6] = Strain/Indicator: TA100, Metabolic Activation: RAT, LIVER, S-9, AROCLOR 1254, Method: STANDARD PLATE

Structure (SMILES): O=S(=O)(O)c1ccc2cc(Oc3ccc4cc(S(=O)(=O)O)ccc4c3)ccc2c1
- mutagenic call [1]: inactive; negative
- mutagenic call (Strain/Indicator: TA98, Metabolic Activation: RAT, LIVER, S-9, PHENOBARBITAL, Method: PREINCUBATION): inactive; negative
- mutagenic call [2]: inactive; negative
- mutagenic call (Strain/Indicator: TA100, Metabolic Activation: RAT, LIVER, S-9, PHENOBARBITAL, Method: PREINCUBATION): inactive; negative

Structure (SMILES): CCCCC(CC)COC(=O)c1ccccc1C(=O)O (centres undefined)
- mutagenic call (Strain/Indicator: TA97, Metabolic Activation: NONE, Method: STANDARD PLATE): inactive; negative
- mutagenic call (Strain/Indicator: TA97, Metabolic Activation: RAT, LIVER, S-9, AROCLOR 1254, Method: STANDARD PLATE): inactive; negative
- mutagenic call (Strain/Indicator: TA97, Metabolic Activation: RAT, LIVER, S-9, DI(2-ETHYLHEXYL)PHTHALATE, Method: STANDARD PLATE): inactive; negative
- mutagenic call (Strain/Indicator: TA98, Metabolic Activation: HAMSTER, LIVER, S-9, AROCLOR 1254 (10%), Method: PREINCUBATION): inactive; negative
- mutagenic call [1]: inactive; negative
- mutagenic call [3]: inactive; negative
- mutagenic call (Strain/Indicator: TA98, Metabolic Activation: RAT, LIVER, S-9, AROCLOR 1254 (10%), Method: PREINCUBATION): inactive; negative
- mutagenic call [4]: inactive; negative
- mutagenic call (Strain/Indicator: TA98, Metabolic Activation: RAT, LIVER, S-9, DI(2-ETHYLHEXYL)PHTHALATE, Method: STANDARD PLATE): inactive; negative
- mutagenic call (Strain/Indicator: TA100, Metabolic Activation: HAMSTER, LIVER, S-9, AROCLOR 1254 (10%), Method: PREINCUBATION): inactive; negative
- mutagenic call [2]: inactive; negative
- mutagenic call [5]: inactive; negative
- mutagenic call (Strain/Indicator: TA100, Metabolic Activation: RAT, LIVER, S-9, AROCLOR 1254 (10%), Method: PREINCUBATION): inactive; negative
- mutagenic call [6]: inactive; negative
- mutagenic call (Strain/Indicator: TA100, Metabolic Activation: RAT, LIVER, S-9, DI(2-ETHYLHEXYL)PHTHALATE, Method: STANDARD PLATE): inactive; negative
- mutagenic call (Strain/Indicator: TA102, Metabolic Activation: NONE, Method: STANDARD PLATE): inactive; negative
- mutagenic call (Strain/Indicator: TA102, Metabolic Activation: RAT, LIVER, S-9, AROCLOR 1254, Method: STANDARD PLATE): inactive; negative
- mutagenic call (Strain/Indicator: TA102, Metabolic Activation: RAT, LIVER, S-9, DI(2-ETHYLHEXYL)PHTHALATE, Method: STANDARD PLATE): inactive; negative
- mutagenic call (Strain/Indicator: TA1535, Metabolic Activation: HAMSTER, LIVER, S-9, AROCLOR 1254 (10%), Method: PREINCUBATION): inactive; negative
- mutagenic call (Strain/Indicator: TA1535, Metabolic Activation: NONE, Method: PREINCUBATION): inactive; negative
- mutagenic call (Strain/Indicator: TA1535, Metabolic Activation: RAT, LIVER, S-9, AROCLOR 1254 (10%), Method: PREINCUBATION): inactive; negative
- mutagenic call (Strain/Indicator: TA1537, Metabolic Activation: HAMSTER, LIVER, S-9, AROCLOR 1254 (10%), Method: PREINCUBATION): inactive; negative
- mutagenic call (Strain/Indicator: TA1537, Metabolic Activation: NONE, Method: PREINCUBATION): inactive; negative
- mutagenic call (Strain/Indicator: TA1537, Metabolic Activation: RAT, LIVER, S-9, AROCLOR 1254 (10%), Method: PREINCUBATION): inactive; negative

Structure (SMILES): O=S(=O)(Nc1ccc(Cl)cc1Cl)c1cccc2cccnc12
- mutagenic call [3]: inactive; negative
- mutagenic call [4]: inactive; negative
- mutagenic call [5]: inactive; negative
- mutagenic call [6]: inactive; negative
- mutagenic call (Strain/Indicator: TA1535, Metabolic Activation: NONE, Method: STANDARD PLATE): inactive; negative
- mutagenic call (Strain/Indicator: TA1535, Metabolic Activation: RAT, LIVER, S-9, AROCLOR 1254, Method: STANDARD PLATE): inactive; negative
- mutagenic call (Strain/Indicator: TA1537, Metabolic Activation: NONE, Method: STANDARD PLATE): inactive; negative
- mutagenic call (Strain/Indicator: TA1537, Metabolic Activation: RAT, LIVER, S-9, AROCLOR 1254, Method: STANDARD PLATE): inactive; negative

Structure (SMILES): CCCCCC(=O)N=c1sn(C(=O)CCCCC)c2ccc([N+](=O)[O-])cc12
- mutagenic call (Strain/Indicator: TA100, Metabolic Activation: S-9, Method: STANDARD PLATE): active; positive

Structure (SMILES): O=C(O)C=C(C(Cl)Cl)C(Cl)Cl
- mutagenic call [1]: inactive; negative
- mutagenic call [2]: active; positive
- mutagenic call (Strain/Indicator: TA104, Metabolic Activation: NONE, Method: PREINCUBATION): inactive; negative

Structure (SMILES): O=[N+]([O-])c1ccc2c(c1)sc1ccccc12
- mutagenic call (Strain/Indicator: TA98(1,8-DNP6), Metabolic Activation: NONE, Method: PREINCUBATION): active; positive
- mutagenic call (Strain/Indicator: TA98(NR), Metabolic Activation: NONE, Method: PREINCUBATION): active; positive
- mutagenic call (Strain/Indicator: TA98(NR), Metabolic Activation: RAT LIVER S-9, 3-METHYLCHOLANTHRENE (10%), Method: PREINCUBATION): active; positive
- mutagenic call [1]: active; positive
